Values of other authors in patent publication US11464736B2, “Thermally gelling drug formulations” (UNM Rainforest Innovations, priority 2019, dated 2022).

Key:
[1] = target: CYP3A4 metabolizing enzyme (Homo sapiens, UniProt P08684)
[2] = not given; remark: listed apart in the source

Sequence of CYP3A4 metabolizing enzyme (P08684 whole entry): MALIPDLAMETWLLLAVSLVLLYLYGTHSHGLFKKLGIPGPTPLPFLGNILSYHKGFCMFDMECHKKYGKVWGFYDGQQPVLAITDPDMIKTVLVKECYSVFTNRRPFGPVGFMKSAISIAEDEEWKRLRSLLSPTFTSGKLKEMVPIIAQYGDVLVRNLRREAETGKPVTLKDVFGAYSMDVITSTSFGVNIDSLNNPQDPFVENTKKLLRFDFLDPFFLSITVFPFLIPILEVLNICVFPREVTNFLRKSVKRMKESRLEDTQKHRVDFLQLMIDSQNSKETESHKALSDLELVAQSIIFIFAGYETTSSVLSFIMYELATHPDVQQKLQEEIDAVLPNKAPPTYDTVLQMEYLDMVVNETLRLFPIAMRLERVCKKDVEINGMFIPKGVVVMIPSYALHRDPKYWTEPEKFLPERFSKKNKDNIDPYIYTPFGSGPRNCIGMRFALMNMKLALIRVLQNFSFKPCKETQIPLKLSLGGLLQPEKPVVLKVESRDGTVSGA

Compound	inhibition of CYP3A4 [1]	log P	increase of oral bioavailability when taken with food [2]
CC(=O)C(C)n1ncn(-c2ccc(N3CCN(c4ccc(OC[C@H]5CO[C@](Cn6cncn6)(c6ccc(Cl)cc6Cl)O5)cc4)CC3)cc2)c1=O (mixture of isomers) [keto-itraconazole]	competitive inhibitors	–	–
CCC(C)n1ncn(-c2ccc(N3CCN(c4ccc(OCC5COC(Cn6cncn6)(c6ccc(Cl)cc6Cl)O5)cc4)CC3)cc2)c1=O (centres unmarked) [ITZ, Itraconazole]	–	5.7-6.2	33-37%
O=c1[nH]ncn1-c1ccc(N2CCN(c3ccc(OCC4COC(Cn5cncn5)(c5ccc(Cl)cc5Cl)O4)cc3)CC2)cc1 (centres unmarked) [N-desalkyl-itraconazole]	competitive inhibitors	–	–
hydroxy-itraconazole	competitive inhibitors	–	–
